Experiments:
Type in all cases: cell-based
[1] = test system: MDA-MB-231 human mammary carcinoma cells; settings: MDA-MB-231, 0.1-1.0 μM SSTN peptide, 2 hr
Experimental: (§1) FIGS. 5A-5F—Inhibition of MDA-MB-231 human mammary carcinoma cell attachment and spreading on VN by synstatin82-130. MDA-MB-231 human mammary carcinoma cells, which rely on the αvβ3 integrin for attachment and spreading on VN, were plated on 10 μg/ml VN for 2 hr in the absence of peptide (FIG. 5A) or in the presence of 0.1 (FIG. 5B), 0.3 (FIG. 5C) or 1 μM (FIG. 5D) synstatin82-130. The cells were fixed and stained as in FIG. 2.
FIG. 17—Human SSTN peptides inhibit αvβ3-mediated cell attachment and spreading on vitronectin. MDA-MB-231 human mammary carcinoma cells were allowed to attach and spread on either vitronectin (VN) or fibronectin (FN) during a 2 hr assay in the presence of 0, 0.1, 0.3, 0.5, 1.0 or 30 μM SSTN peptide. […] The two peptides tested are derived either from amino acids 88-121 (hSSTN 88-121) or 89-120 (hSSTN 89-120) of the human Sdc1 sequence. Adhesion to VN, but not FN, is mediated by the αvβ3 integrin on these cells and is disrupted by the human SSTN peptides.
(§2) Cell adhesion and spreading assays were performed with modification to the previous procedures (Lebakken and Rapraeger, 1996. Briefly, human plasma vitronectin or fibronectin at 10-30 μg/ml were applied to nitrocellulose-coated ten well slides (Erie Scientific) and incubated for 1-2 h at 37° C. Slides were blocked with 1.0% heat-denatured bovine serum albumin for a minimum of 30 min at 37° C. Cells were detached from the substratum using 5 mM EDTA in Tris-buffered saline and resuspended in HEPES-buffered culture medium containing 0.1% heat-denatured BSA. Cells were plated at a density of 15,000 cells per well and allowed to attach and spread for 2 h prior to fixation in 4% paraformaldehyde in CMF-PBS. For fluorescence microscopy, fixed cells were permeabilized in 0.2% Triton X-100, labeled with rhodamine-conjugated phalloidin and analyzed using fluorescence microscopy. For testing inhibition by recombinant mScd-1ED and synstatin82-130, cells were pre-incubated 10 min before plating in the presence of the inhibitor. […] LM609 was used as a specific block to αvβ3 and P1F6 was used as a specific blocker of αvβ5.
The inventors have tested the adhesion and spreading of MDA-MB-231 mammary carcinoma cells on VN in the presence or absence of synstatin82-130. These cells rely specifically on the active αvβ3 integrin for this adhesion (Beauvais et al., 2004). Recombinant Sdc1 ectodomain (SLED) has been shown by the inventors previously to block spreading of these cells with an IC50 of about 3-10 μM (Beauvais et al., 2004). […] Thus, synstatin82-130 is a specific and effective inhibitor of αvβ3 integrin activation.

[2] = test system: MDA-MB-231 human mammary carcinoma cells; assay: Cell attachment and spreading on fibronectin (control ligand), MDA-MB-231 cells; settings: MDA-MB-231, 30 μM, 100-fold greater than IC50
Experimental: as §1
FIG. 17—Human SSTN peptides inhibit αvβ3-mediated cell attachment and spreading on vitronectin. MDA-MB-231 human mammary carcinoma cells were allowed to attach and spread on either vitronectin (VN) or fibronectin (FN) during a 2 hr assay in the presence of 0, 0.1, 0.3, 0.5, 1.0 or 30 μM SSTN peptide. […] The two peptides tested are derived either from amino acids 88-121 (hSSTN 88-121) or 89-120 (hSSTN 89-120) of the human Sdc1 sequence. Adhesion to VN, but not FN, is mediated by the αvβ3 integrin on these cells and is disrupted by the human SSTN peptides. […]

[3] = test system: human dermal microvascular endothelial cells (HMEC-1); settings: HMEC-1, truncated peptides compared to SSTN82-130, FIG. 14
Experimental: FIGS. 6A-6H—Inhibition of B82L fibroblast and HMEC-1 cell attachment and spreading on VN by synstatin82-130. B82L fibroblasts, which rely on the αvβ5 integrin for attachment to VN, and human dermal microvascular endothelial cells, which rely on both the αvβ3 and αvβ5 integrins for attachment to VN, were plated in the absence of peptide (FIGS. 6A, 6E) or in the presence of 0.1 (FIGS. 6B, 6F), 0.3 (FIGS. 6C, 6G) or 1 μM (FIGS. 6D, 6H) synstatin82-130 for 2 hr and processed as described in FIG. 2.
FIGS. 10A-10D—Dependence of HMEC cell attachment and spreading on integrin activation by Sdc1 and its inhibition by SSTN. (FIG. 10A) HMECs were plated for 2 hr either on Sdc1-specific antibody B-B4 to engage Sdc1 or on VN (10 μg/ml coating concentration) to engage the αvβ3 and αvβ5 integrins. Blocking antibodies LM609 (10 μg/ml, specific for αvβ3) and P1F6 (10 μg/ml, specific for αvβ5), SSTN (0.5 μM) or recombinant mouse Sdc1 ectodomain (mS1ED, 5 μM) were added. The ligand mimetic antibody WOW1 was used to detect activated αvβ3 integrin on cells plated on B-B4. (FIG. 10B) HMECs were treated with siRNA oligo specific for human Sdc1 for 48 hr prior to plating on VN. Sdc1 expression was quantified by flow cytometry using human Sdc1-specific mAb B-B4 or a control mouse IgG. (FIG. 10C-10D) The percentage of cell attaching or attaching and spreading was quantified for HMECs, HAEC and MAECs plated on VN for 24 hr in the presence of mS1ED or SSTN, or after siRNA silencing of Sdc1 expression in the presence of mAb LM609 to block αvβ3 integrin, P1F6 to block αvβ5 integrin, or both antibodies.
FIG. 14—Activity of SSTN peptides. A diagram of SSTN82-130 used in our experiments is shown. The gray letters designate amino acids that are identical or highly conserved across species (mouse, human, rat, hamster). Shorter peptides have been tested using HMEC-1 endothelial cells for inhibition of […] mediated cell attachment and spreading in comparison to SSTN82-130.
as §2
Finally, the inventors have examined HMEC-1 cells, which are immortalized human dermal microvascular endothelial cells. Microvascular endothelial cells are regarded as being the main source of endothelial cells that carry out angiogenesis in vivo. The HMEC-1 cells grown in serum-containing culture medium express Sdc1 (as noted earlier) and also express active αvβ3 and αvβ5 integrins. […]

Row | Substance | attachment and spreading on VN [1] | attachment and spreading on fibronectin (FN) [2] | activity in cell attachment and spreading assays on VN [3]
1 | hSSTN 89-120: human SSTN, amino acids 89-120 of the human Sdc1 sequence, SEQ ID NO:21 (STSTLPAGEGPKEGEAVVLPEVEPGLTAREQE) | disrupted | lack of activity | 
2 | SSTN88-121: truncated mouse SSTN peptide, amino acids 88-121 (FTSVLPAGEKPEEGEPVLHVEAEPGFTARDKEKE; UniProt P18828 88-121, looked up, fragment) |  |  | active
3 | hSSTN 88-121: human SSTN, amino acids 88-121 of the human Sdc1 sequence, SEQ ID NO:28 (ASTSTLPAGEGPKEGEAVVLPEVEPGLTAREQEA) | disrupted | lack of activity | 
